In patent US20240425475A1, “COMPOUND BASED ON QUINAZOLINE-SUBSTITUTED GLUTARIMIDE SKELETON AND USE THEREOF” (GLUETACS THERAPEUTICS (SHANGHAI) CO., LTD., priority 2022, published 2024) one finds IC50 data, which are given here for 19 molecules.

In assay [1] the target is human Cereblon WT GST-tagged protein (Homo sapiens (Human), UniProt Q96SW2). The experiment in a line: CRBN-binding affinity, CEREBLON BINDING kit (HTRF). As to conditions: HTRF inhibitory activity, binding to CRBN. The source says: Determination of CRBN-Binding Affinity of Compounds
The CEREBLON BINDING kits (specification: 10,000 tests; product number: Catalog #64BDCRBNPEH; CISBIO company) was used to determine the CRBN binding ability of the compounds to be tested through a HTRF method (homogeneous time-resolved fluorescence). The specific methods are as follows: • 1. According to the instructions of the CEREBLON BINDING kits, the compounds to be tested of the present invention and lenalidomide were serially diluted using diluent #9 (1×) solution to obtain a final concentration of 2 μM for both the tested compounds and lenalidomide solution. • 2.2.5 μL of the above 2 μM of the tested compounds and lenalidomide solution, as well as the same volume of diluent #9 (1×) solution (solvent control group, Std0) were taken and added to each well of a 96-well plate, respectively. Then, 2.5 μL of (human Cereblon WT GST-tagged protein) solution was added to each well. Finally, 5 μL of the uniformly mixed thalidomide-Red reagent and GST Eu antibody working solution were added to each of the above wells. The final concentration of the tested compounds and lenalidomide in each well is 0.5 μM. • 3. The blank control wells were sequentially added with 2.5 μL of diluent #9 (1×) solution, 2.5 μL of PROTAC binding buffer, and 5 μL of uniformly mixed thalidomide-Red reagent and GST Eu antibody working solution. • 4. After sealing and incubating the solutions in the above wells at room temperature for 3 hours, the absorbance values at emission wavelengths of 620 nm and 665 nm were detected by the HTRF method using a Spark microplate reader (V3.1 SP1).
The corresponding CRBN binding inhibition rate was calculated using the following method: […]
Note: OD 665 nmcompound is the absorbance value of each well of the compounds to be tested of the present disclosure at an emission wavelength of 665 nm.
OD 620 nmcompound is the absorbance value of each well of the compounds to be tested of the present disclosure at an emission wavelength of 620 nm.
OD 665 nmcontrol is the absorbance value of the blank control well at an emission wavelength of 665 nm.
OD 620 nmcontrol is the absorbance value of the blank control well at an emission wavelength of 620 nm.
OD 665 nmstd0 is the absorbance value of the solvent control well at an emission wavelength of 665 nm.
OD 620 nmstd0 is the absorbance value of the solvent control well at an emission wavelength of 620 nm.

The test system of assay [2] is Human diffuse large B-cell lymphoma cell line: TMD8. The experiment in a line: Half inhibitory concentration (IC50) against tumor cells, CCK-8 cell viability. The format is cell-based. To be noted: 96 h treatment. How it is done: (§1) The tumor cells used herein were cultured in a cell culture medium listed in table 2 at 37° C. in an incubator with 5% CO2. Prior to experimentation, all cells used were correctly identified by STR profiling, and tested negative for mycoplasma through routine screenings. [table] Determination of Half Inhibitory Concentration (IC50) of the Compounds Against Tumor Cells: IC50 values of the compounds of the present disclosure (including the compounds in Table 1, and compounds of examples 1-104) were measured using the Meilun Cell Counting Kit-8 kit from Dalian Meilun Biotech Co., Ltd. Assay details are as follows: tumor cells were seeded in a 96-well plate at a density listed in Table 3. After 24 h, 100 μL of the inoculated cells were treated with 0.5 μl of the compounds of the present disclosure (including the compounds in Table 1, and compounds of examples 1-104) at 10 different successively decreasing concentrations (starting at the highest concentration of […]; 5-fold serial dilutions). After the cells were treated with the compounds of the present disclosure for a period of time, cell viability was measured according to the instructions provided with the CCK-8 kit. DMSO served as the negative control, and corresponding commercial immunomodulatory drug Avadomide (CC-122) was used as the positive control, both of which treated the cells using the same protocol as that of the compounds of the present disclosure. The growth inhibition of the compounds of the present disclosure on cells was plotted by Prism Graphpad software, and the IC50 values of the compounds of the present disclosure were calculated therefrom. [table] We tested the activities of the compounds of the present invention (including the compounds in Table 1 and Examples 1-104 compounds) in tumor cells through a dose-dependent manner. The cells were treated with the compounds of the present invention at 10 different successively decreasing concentrations (starting at the highest concentration of 10 μM; 5-fold serial dilutions) for 72 h or 96 h, and then the cell viability determination was performed in accordance with CCK-8 reagent operating instructions.

Assay [3] has as its system Human dexamethasone-resistant multiple myeloma cell line: MM.1R. Described as above. The format is cell-based. To be noted: MM.1R cells, 72 h treatment. As for the experimental part: as §1
Assay [4] deals with Human multiple myeloma cells: MM.1S. Described as above. Type of assay: cell-based. To be noted: MM1.S, MM.1S cells, 72 h treatment. As for the experimental part: as §1
Assay [5] deals with Human colon cancer cell: SW620. Described as above. The format is cell-based. To be noted: SW-620, 96 h treatment. As for the experimental part:
as §1

Sequence of human Cereblon WT GST-tagged protein (Q96SW2 whole entry): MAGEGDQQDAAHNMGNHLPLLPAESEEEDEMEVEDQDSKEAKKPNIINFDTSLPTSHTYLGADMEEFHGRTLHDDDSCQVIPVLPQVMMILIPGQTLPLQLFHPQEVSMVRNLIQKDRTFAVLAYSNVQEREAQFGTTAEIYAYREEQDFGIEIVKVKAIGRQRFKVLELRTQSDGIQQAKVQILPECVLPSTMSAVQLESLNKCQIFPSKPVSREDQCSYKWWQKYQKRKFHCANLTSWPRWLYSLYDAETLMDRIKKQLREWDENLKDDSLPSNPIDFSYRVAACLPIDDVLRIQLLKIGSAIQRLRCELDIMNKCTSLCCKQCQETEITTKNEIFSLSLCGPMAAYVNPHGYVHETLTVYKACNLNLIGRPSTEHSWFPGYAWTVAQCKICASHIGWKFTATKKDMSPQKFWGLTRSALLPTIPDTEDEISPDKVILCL

As usually defined, the IC50 is the concentration that inhibits the measured activity by half. A high value points to weaker potency in that assay. For `Cc1nc2cccc(NCCCCCCCN3CCC4(CC3)CC(F)(F)C4)c2c(=O)n1C1CCC(=O)NC1=O` (centres unmarked) [GT-02773, 3-(5-((7-(2,2-difluoro-7-azaspiro[3.5]nonan-7-yl)heptyl)amino)-2-methyl-4-oxoquinazolin-3(4H)-yl)piperidine-2,6-dione], the IC50 in assay [1] was found to be 2800 nM; in assay [2], 440 nM.
With `Cc1nc2cccc(NCCCCCCCNC34CC5CC(CC3C5)C4)c2c(=O)n1C1CCC(=O)NC1=O` (centres unmarked) [GT-02495, 3-(5-((7-(((3as,6as)-hexahydro-2,5-methanopentalen-3a(1H)-yl)amino)heptyl)amino)-2-methyl-4-oxoquinazolin-3(4H)-yl)piperidine-2,6-dione], the IC50 amounted to 320 nM in assay [1], 9.8 nM in assay [3] and 21.4 nM in assay [2].
On to `Cc1nc2cccc(NCCCCCCCN[C@@]34CC5CC(C)(C[C@@](C)(C5)C3)C4)c2c(=O)n1C1CCC(=O)NC1=O` (stereo partly drawn) [GT-02767, 3-(5-((7-(((1SR,3RS,5SR,7r)-3,5-dimethyladamantan-1-yl)amino)heptyl)amino)-2-methyl-4-oxoquinazolin-3(4H)-yl)piperidine-2,6-dione], for which the IC50 is 1050 nM in assay [1], 309 nM in assay [2] and 69.9 nM in assay [4].
For the molecule `Cc1nc2cccc(NCCCCCCCNC34CC5CC(CC(C5)C3)C4)c2c(=O)n1C1CCC(=O)NC1=O` (centres unmarked) [GT-02237, 3-(5-((7-(((1s,3s)-adamantan-1-yl)amino)heptyl)amino)-2-methyl-4-oxoquinazolin-3(4H)-yl)piperidine-2,6-dione], the values for the IC50 in assay [1], in assay [2] and in assay [4] were 950 nM, 8.2 nM and 3.3 nM, respectively.
In turn, `Cc1nc2cccc(NCCCCCCCN3CC4CC4C3)c2c(=O)n1C1CCC(=O)NC1=O` (centres unmarked) [GT-02772, 3-(5-((7-(3-azabicyclo[3.1.0]hexan-3-yl)heptyl)amino)-2-methyl-4-oxoquinazolin-3(4H)-yl)piperidine-2,6-dione] had a 50% inhibitory concentration (IC50) in assay [2] of 448 nM.
As for `Cc1nc2cccc(NCCCCCCNC34CC5CC(CC(C5)C3)C4)c2c(=O)n1C1CCC(=O)NC1=O` (centres unmarked) [GT-02235, 3-(5-((6-(((3s,5s,7s)-adamantan-1-yl)amino)hexyl)amino)-2-methyl-4-oxoquinazolin-3(4H)-yl)piperidine-2,6-dione], the IC50 in assay [2] stood at 146 nM; in assay [4], 39.5 nM.
`Cc1nc2cccc(NCCCCCNC(=O)C34CC5CC(CC(C5)C3)C4)c2c(=O)n1C1CCC(=O)NC1=O` (centres unmarked) [GT-02323, (3r,5r,7r)-N-(5-((3-(2,6-dioxopiperidin-3-yl)-2-methyl-4-oxo-3,4-dihydroquinazolin-5-yl)amino)pentyl)adamantane-1-carboxamide] came in with an IC50 in assay [2] of 652 nM.
Turning to `Cc1nc2cccc(NCCCCCCNC34CC5CC(CC3C5)C4)c2c(=O)n1C1CCC(=O)NC1=O` [GT-02494, 3-(5-((6-(((2R,3as,5S,6as)-hexahydro-2,5-methanopentalen-3a(1H)-yl)amino)hexyl)amino)-2-methyl-4-oxoquinazolin-3(4H)-yl)piperidine-2,6-dione], the IC50 stood at 460 nM in assay [1] and 184 nM in assay [2].
In the case of `Cc1nc2cccc(NCCCCCCCO)c2c(=O)n1C1CCC(=O)NC1=O` (centres unmarked) [GT-02598, 3-(5-((7-hydroxyheptyl)amino)-2-methyl-4-oxoquinazolin-3(4H)-yl)piperidine-2,6-dione], the figures for the IC50 in assay [1] and in assay [4] were 3660 nM and 17.2 nM, respectively.
For the molecule `Cc1nc2cccc(NCCCCCCCNC(C)C34CC5CC(CC(C5)C3)C4)c2c(=O)n1C1CCC(=O)NC1=O` (centres unmarked) [GT-02768, 3-(5-((7-((1-((3r,5r,7r)-adamantan-1-yl)ethyl)amino)heptyl)amino)-2-methyl-4-oxoquinazolin-3(4H)-yl)piperidine-2,6-dione], the IC50 in assay [1] was found to be 680 nM; in assay [2], 294 nM; in assay [4], 98.1 nM.
As to `Cc1nc2cccc(NCCCCCNC3C4CC5CC(C4)CC3C5)c2c(=O)n1C1CCC(=O)NC1=O` (centres unmarked) [GT-02393, 3-(5-((5-(((1r,3r,5r,7r)-adamantan-2-yl)amino)pentyl)amino)-2-methyl-4-oxoquinazolin-3(4H)-yl)piperidine-2,6-dione], the figures for the IC50 in assay [1] and in assay [2] were 420 nM and 458 nM, respectively.
As to `Cc1nc2cccc(NCCCCCCCNC34CCC(F)(CC3)CC4)c2c(=O)n1C1CCC(=O)NC1=O` (centres unmarked) [GT-02774, 3-(5-((7-((4-fluorobicyclo[2.2.2]octan-1-yl)amino)heptyl)amino)-2-methyl-4-oxoquinazolin-3(4H)-yl)piperidine-2,6-dione], the IC50 in assay [1] is 2610 nM; in assay [2], 102 nM.
For the molecule `Cc1cc2cccc(NCCN3CCN(C(c4ccc(F)cc4)c4ccc(F)cc4)CC3)c2c(=O)n1C1CCC(=O)NC1=O` (centres unmarked) [GT-03388, 3-(8-((2-(4-(bis(4-fluorophenyl)methyl)piperazin-1-yl)ethyl)amino)-3-methyl-1-oxoisoquinolin-2(1H)-yl)piperidine-2,6-dione], in assay [3], the IC50 was 352 nM.
In assay [2], `Cc1nc2cccc(NCCOCCOCCNC34CC5CC(CC(C5)C3)C4)c2c(=O)n1C1CCC(=O)NC1=O` (centres unmarked) [GT-02279, 3-(5-((2-(2-(2-(((1s,3s)-adamantan-1-yl)amino)ethoxy)ethoxy)ethyl)amino)-2-methyl-4-oxoquinazolin-3(4H)-yl)piperidine-2,6-dione] showed an IC50 of 438 nM.
As for `Cc1nc2cccc(CCCCCCCCNC34CC5CC(CC(C5)C3)C4)c2c(=O)n1C1CCC(=O)NC1=O` (centres unmarked) [GT-02797, 3-(5-(8-(((1s,3s)-adamantan-1-yl)amino)octyl)-2-methyl-4-oxoquinazolin-3(4H)-yl)piperidine-2,6-dione], the results for the IC50 in assay [1] and in assay [2] were 180 nM and 312 nM, respectively.
In the case of `Cc1nc2cccc(NCCCCCNC34CC5CC(CC3C5)C4)c2c(=O)n1C1CCC(=O)NC1=O` [GT-02496, 3-(5-((5-(((2R,3as,5S,6as)-hexahydro-2,5-methanopentalen-3a(1H)-yl)amino)pentyl)amino)-2-methyl-4-oxoquinazolin-3(4H)-yl)piperidine-2,6-dione], the IC50 in assay [1] was found to be 420 nM; in assay [2], 474 nM.
Turning to `Cc1nc2cccc(SCCN3CCN(c4ccc(C#N)cc4F)CC3)c2c(=O)n1C1CCC(=O)NC1=O` (centres unmarked) [GT-03314, 4-(4-(2-((3-(2,6-dioxopiperidin-3-yl)-2-methyl-4-oxo-3,4-dihydroquinazolin-5-yl)thio)ethyl)piperazin-1-yl)-3-fluorobenzonitrile], half-maximal inhibition in assay [5] (IC50) required 709 nM.
Consider `Cc1nc2cccc(NCCCCCNC34CC5CC(CC(C5)C3)C4)c2c(=O)n1C1CCC(=O)NC1=O` (centres unmarked) [GT-02280, 3-(5-((5-(((3s,5s,7s)-adamantan-1-yl)amino)pentyl)amino)-2-methyl-4-oxoquinazolin-3(4H)-yl)piperidine-2,6-dione], for which the IC50 in assay [2] is 409 nM.
The molecule `Cc1nc2cccc(NCCCCNC34CC5CC(CC(C5)C3)C4)c2c(=O)n1C1CCC(=O)NC1=O` (centres unmarked) [GT-01818, 3-(5-((4-(((3s,5s,7s)-adamantan-1-yl)amino)butyl)amino)-2-methyl-4-oxoquinazolin-3(4H)-yl)piperidine-2,6-dione] returned an IC50 in assay [2] of 554 nM.
